How the values were obtained:
TIF-IA = assay: In vitro transcription assay of TIF-IA purified from treated cells, in nuclear extract from density-arrested FM3A cells; assay type: biochemical
Protocol: (A) TIF-IA activity in starved and serum-stimulated cells. The indicated amounts of TIF-IA purified from starved NIH3T3 cells (lanes 2-4) or cells that were stimulated by serum in the absence (lanes 5-7) or presence of PD98059 (lanes 8-10) were assayed for their capability to restore transcription of a nuclear extract from density-arrested FM3A cells (lane 1). The amount and purity of TIF-IA were estimated on silver-stained SDS-polyacrylamide gels (data not shown).
FLAG-tagged TIF-IA was purified from untreated (lanes 2-3) or PD98059-treated HEK293T cells (lanes 4-5). The indicated amounts of TIF-IA were assayed for their capability to restore transcription of a nuclear extract from density-arrested FM3A cells (lane 1). The amount of TIF-IA was estimated on silver-stained SDS-polyacrylamide gels (data not shown).
20 and 40 ng of TIF-IA that was immunopurified from untreated (lanes 2, 3) and rapamycin-treated cells (lanes 4, 5) were added to transcription reactions containing nuclear extracts (30 μg) from density-arrested cells.
Nuclear extracts were prepared from exponentially growing (8×10^5 cells/ml), density-arrested or PD98059-treated (CN Bioscience, Bad Soden, Germany) 40 μM, 0.5 hr) or rapamycin-treated FM3A cells (ATCC, Manassas, USA). […] After incubation for 60 min at 30° C., RNA was extracted and analyzed on non-denaturing 5% polyacrylamide gels […]

Pol I transcription = assay: Pol I reporter plasmid pMrl930-BH co-transfection in NIH3T3 cells, Northern blot; assay type: cell-based; details: 0.25, 0.5 or 1 μg expression vector
Protocol: (C) Phosphorylation by RSK is necessary and sufficient for enhancing TIF-IA activity in vivo. NIH3T3 cells were co-transfected with 3 μg pMrl930-BH and lor 2.5 μg of pMT2-HA-CA-RSK2 (lanes 2, 3). Transcripts from the reporter plasmid were monitored on Northern blots. An ethidium bromide stain of cellular 18S and 28S rRNA is shown below.
(C) Transcriptional activity of TIF-IAS44A in vivo. NIH3T3 cells were cotransfected with 2.5 μg Pol I reporter plasmid (pMrl930-BH) and 0.25, 0.5 or 1 μg of pcDNA3.1-TIF-IA (lanes 2-4), TIF-IAS44A (lanes 5-7). Transcripts from the reporter plasmid were monitored on Northern blots. The amount of cellular 18S and 28S rRNA is shown below.
NIH3T3, HEK293T and CLL39 cells were cultured in Dulbecco's modified Eagles medium (DMEM) supplemented with 10% fetal calf serum. Cells were transfected with 5 μg of DNA per 10^6 cells using the calcium phosphate DNA coprecipitation method. Total RNA was isolated after 48 h and analyzed on Northern blots as described (Voit et al., EMBO J. 18 (1999), 1891-1899). Cellular pre-rRNA levels were monitored by hybridization to antisense RNA complementary to the first 155 nucleotides of unprocessed 45S pre-RNA. Transcripts from the rDNA reporter plasmid were monitored by hybridization to a riboprobe that is complementary to pUC sequences inserted between the rDNA promoter and terminator sequences of pMrl930-BH. […]

COc1cccc(-c2cc(=O)c3ccccc3o2)c1N [PD98059]
transcriptional activity of TIF-IA from treated cells (TIF-IA; NIH3T3 cells stimulated with serum in the presence of PD98059): TIF-IA remained inactive | transcriptional activity of TIF-IA from treated cells (TIF-IA; unsynchronized cells treated for 30 min with PD98059): transcriptionally inactive

TIF-IA: wild-type human transcription initiation factor TIF-IA, accession No. AJ272050
transcription of the Pol I reporter (Pol I transcription): enhanced transcription of the reporter

Reference: patent US20060057669A1, “Inactive transcription factor tif-ia and uses thereof” (priority 2002, published 2006)
